# Molecular target: T1, TRIM25 PRYSPRY and BRD4 BD2 ternary complex (Homo sapiens, UniProt O60885+Q14258)
# T1 construct: made in house; host or cells: Sf9 insect cells (TRIM25 PRYSPRY)
# Assay: Recombinant protein ternary complex pull-down
# Type: binding
# Conditions: TRIM25 PRYSPRY pre-labelled with compound 50 μM overnight, intermediate wash step, then BRD4 BD2
# Experimental: 3 25 mM HEPES, 50 mM NaCl for 20 h at 4 °C, before purification by gel filtration into
# 4 buffer 20 mM Bis-Tris pH 7.5, 150 mM NaCl, 0.5 mM TCEP. Commercially available
# 5 sitting drop crystallization screens were dispensed at 20 °C using an automated
# 6 Mosquito machine (TTP Labtech). Crystals grew from a pre-labelled protein-ligand
# 8 drops containing 100 nL protein-ligand complex and 100 nL reservoir solution. For X-
# 9 ray data acquisition, crystals were cryoprotected with perfluoropolyether cryo oil
# 10 (Hampton Research, HR2-814). Diffraction data were collected on beamline I04 (λ =
# 11 0.9537 Å) at Diamond Light Source (Oxford, UK), processed using DIALS17 and
# 12 merged and scaled using AIMLESS.18 The structure of the complex was solved by
# 13 molecular replacement using the available TRIM25 PRYSPRY structure (6FLM)10 as
# 15 in Coot20 and refined using Refmac21 and Phenix.19 Coordinates and structure factors
# 16 are deposited in the Protein Data Bank under accession code 9I0T. Further details on
# 17 data collection and refinement statistics are summarised in Supplementary Table 1.
# 20 Recombinant TRIM25 PRYSPRY (100 µM) in 25 mM HEPES pH 7.5, 50 mM NaCl,
# 23 acquired with Topspin (Bruker) at timepoint 0 (immediately after mixing protein with
# 24 compound), and after 4 h incubation.
# 26 Recombinant protein ternary complex pull-down assays
# 27 His10-TRIM25 or His6-TRIM25 PRYSPRY (4 µM) was pre-labelled with either DMSO
# 28 (1%) or heterobifunctional compounds (HB1, HB2 or HB3, 50 µM, 1% DMSO) and
# 29 captured on His Mag Sepharose Ni magnetic beads, and washed once to remove
# 30 excess unreacted compound, as described above.
# 32 Substrate (BRD4 or BRD4 BD2) (4 µM, assuming 1:1 with on-bead captured TRIM25-
# 33 compound complex) was added to the on-bead captured TRIM25-compound complex,
# 1 and incubated in capture buffer 50 mM Tris pH 7.5, 150 mM NaCl, 5 mM MgCl2, 20 mM
# 2 imidazole, 0.5 mM TCEP, 0.5% IGEPAL for 2 h at 4 °C, with rotation. Beads were
# 3 washed three times with 500 µL capture buffer, and mixed with 12 µL NuPAGE LDS
# 4 sample buffer (1x, Invitrogen, NP0007). Samples were analysed by SDS-PAGE and […]
# T1 sequence (Q14258 435-630, other chains not shown): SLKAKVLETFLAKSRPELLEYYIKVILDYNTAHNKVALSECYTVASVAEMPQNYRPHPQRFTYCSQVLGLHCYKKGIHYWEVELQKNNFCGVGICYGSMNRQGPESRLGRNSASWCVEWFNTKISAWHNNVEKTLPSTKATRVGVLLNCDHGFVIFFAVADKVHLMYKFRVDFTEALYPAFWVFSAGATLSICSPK
row,SMILES,in vitro ternary complex formation (pull-down)
1,Cc1cc(C(=O)N2CCCN(C(=O)CCl)CC2)ccc1-c1cccc(C(=O)NCCOCCOCCNC(=O)C[C@@H]2N=C(c3ccc(Cl)cc3)c3c(sc(C)c3C)-n3c(C)nnc32)c1 [HB1],Ternary complex formation was observed
2,Cc1cc(C(=O)N2CCCN(C(=O)CCl)CC2)ccc1-c1cccc(C(=O)NCCOCCOCCOCCNC(=O)C[C@@H]2N=C(c3ccc(Cl)cc3)c3c(sc(C)c3C)-n3c(C)nnc32)c1 [HB2],Ternary complex formation was observed
3,Cc1cc(C(=O)N2CCCN(C(=O)CCl)CC2)ccc1-c1cccc(C(=O)NCCOCCOCCOCCOCCNC(=O)C[C@@H]2N=C(c3ccc(Cl)cc3)c3c(sc(C)c3C)-n3c(C)nnc32)c1 [HB3],Ternary complex formation was observed
